Measured values taken from US10925858B2, “S-nitrosoglutathione (GSNO) and GSNO reductase inhibitors for use in therapy” (MUSC FOUNDATION FOR RESEARCH DEVELOPMENT, priority 2017, dated 2021).

Legend:
passive EAE disease = test: Adoptive transfer model of EAE (passive EAE), clinical disease; type: in vivo, SJL mice
Method: EAE disease was induced in 8- to 10-week-old female SJL mice by immunization with an emulsion (100 μl, subcutaneous) of proteolipid protein peptide (PLP139-151; Peptide International. Louisville, Ky.) and 200 μg of killed Mycobacterium tuberculosis H37Ra (Difco, Detroit, Mich., USA) followed by booster on day 7 as described previously (Nath et al., 2010). The mice additionally received pertussis toxin (Sigma-Aldrich, St. Louis, Mo.; 200 ng/300 μl PBS, intravenous) on day 0 and 3 post-immunization. On the day of immunization, one group of mice received 100 μl phosphate buffered saline (PBS) and the second group of mice received daily GSNO (1.0 mg/kg, 100 μl/PBS) via oral route GSNO was purchased from World Precision Instruments (Sarasota, Fla.) and its concentration was adjusted spectrophotometrically at 334 nm. Individual animals were observed daily for clinical disease severity by an investigator, blinded to experimental treatments, on a 0-5 scale as follows: 0=no abnormality; 1=piloerection, sluggish, 2=limp tail; 2.5=hind limb weakness (legs slip through cage top); 3=hind limb paralysis, 4=hind and forelimb paralysis; and 5=moribund.
At the peak of EAE disease, the mice were sacrificed and CD4+ T cells were purified from draining lymph nodes (DLN) and spleens by CD4+ T cell isolation kit (Miltenyi, Auburn. Calif.). The purified T cells (2.5×10^6 cells/ml) were cultured in 96-well round-bottom microculture plates (Falcon Labware, Oxnard, Calif.) in RPMI-complete media containing RPMI 1640 (Life Technologies, Gaithersburg, Md.), 10% FBS, and 100 μg/ml streptomycin and penicillin (Atlanta Biologicals Norcross, Ga.), 1 mM glutamine, 1 mM nonessential amino acids, and 50 μM 2-mercaptoethanol (Sigma-Aldrich). For skewing of different CD4+ T cell subsets and their expansion, the isolated CD4+ T cells were stimulated with PLP139-151 (5 μg/ml) with IL-2 (10 ng/ml) for TH0, IL-2 (10 ng/ml), rhIL-12p35 (10 ng/ml), and anti-IL-4 (1 μg/ml) for TH1, or recombinant mouse IL-12/23p40 homodimer (10 ng/ml), anti-IFN-γ 1 (μg/ml), anti-IL-4 (1 μg/ml) for TO 17. All cytokines and antibodies were purchased from BD Biosciences (San Diego, Calif.). Following stimulation, the cells were harvested for adoptive transfer of EAE disease and the culture supernatants were collected for analysis of IFN-γ, IL-17, and IL-10 expression by ELISA (Biolegend Cat #430802, 432505, and 431411; San Diego, Calif.).
(20-30×10^6 T cells in 300 μl RPMI media per mouse) were injected to naive SJL female mice (8-10 week old) via intraperitoneal route. The recipient mice were also given two doses of pertussis toxin (200 ng/300 μl of PBS/i.p.) on day 0 and 2 of post immunization. Clinical EAE disease was measured as describe above.

cerebral microvessels = test: Transmission electron microscopy, ultrastructure of microvessels of diabetic mice; type: in vivo; conditions: cortex and hippocampus, GSNO supplemented diabetic animals, 8 weeks
Method: Male laca mice weighing between 28-32 g were procured from the Central Animal House, Panjab University, Chandigarh. The animals were acclimatized and were fed with standard pellet diet and water ad libitum. The experimental protocols were approved by the Institutional Ethics Committee and were conducted according to Indian National Science Academy (INSA) guidelines for the use and care of experimental animals. The animals were divided into four groups: (i) Control animals received phosphate buffered saline (PBS) throughout the study; (ii) Control+GSNO animals were administered with GSNO 100 μg/kg body weight orally, dissolved in PBS after every 24 h for 8 weeks; (iii) Diabetic animals were injected with STZ at a dose of 40 mg/kg body weight intraperitoneally for 5 days dissolved in 0.1 mol/L citrate buffer, pH 4.5 and Diabetic+GSNO mice were administered GSNO 100 μg/kg body weight orally dissolved in PBS after every 24 h for 8 weeks after the induction of diabetes. Animals were assessed weekly for development of diabetic encephalopathy in terms of memory deficits. All experimental procedures were done on mice at the end of study. Transmission electron microscopy was carried out by the method described by Gao et al., (2005). […]

[1] = daily GSNO treatment of recipient mice

N[C@@H](CCC(=O)N[C@@H](CSN=O)C(=O)NCC(=O)O)C(=O)O [GSNO, S-nitrosoglutathione]
passive EAE disease severity, recipients of T cells from GSNO treated EAE mice treated with GSNO during the disease (passive EAE disease; [1]): further reduced | passive EAE disease, recipients of T cells from untreated EAE mice treated with GSNO during the disease (passive EAE disease; [1]): reduced the EAE disease | passive EAE disease after transfer of T cells from GSNO treated EAE mice (passive EAE disease; recipients without GSNO, vs T cells from untreated EAE mice): significantly delayed and milder disease | passive EAE disease after transfer of TH1 and TH17 skewed T cells from GSNO treated EAE mice (passive EAE disease; vs T cells from untreated EAE mice): significantly milder EAE disease | ultrastructure of microvessels (cerebral microvessels): improved the ultrastructure of the damaged microvessels
